One test has as its target SMARCA2 (Homo sapiens, UniProt P51531). The test can be described thus: HiBiT assay for protein degradation, Hela SMARCA2-HiBiT cells (A series). The format is cell-based. Details: Hela cells were genetically modified via CRISPR/Cas9 to fuse HiBiT to the carboxy terminus of SMARCA2; host or cells: HeLa (CRISPR/Cas9 HiBiT knock-in). The procedure, abridged: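 HeLa cells engineered by CRISPR/Cas9 to carry a HiBiT tag fused to the C-terminus of SMARCA2 (Promega CS302365) were grown in DMEM supplemented with FBS and penicillin-streptomycin. After treatment, remaining SMARCA2 protein was quantified with the Nano-Glo® HiBiT Lytic Detection Assay (Promega N3050), and curves were fitted in GraphPad Prism.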
Background: The HiBiT peptide binds its large partner to form an active luciferase.

The target in the next test is SMARCA4 (Homo sapiens, UniProt P51532). Kind of test: HiBiT assay for protein degradation, Hela SMARCA4-HiBiT cells (A series). The conditions noted are these: for DC50: read-out: SMARC A4 Hela HiBit DC50. The format is cell-based. Set-up: fuse HiBiT to the carboxy terminus of SMARCA2 (Promega CS302365) or SMARCA4 (Promega CS3023225); host or cells: HeLa (CRISPR/Cas9 HiBiT knock-in). An outline of the steps:
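HeLa cells engineered by CRISPR/Cas9 to carry a HiBiT tag fused to the C-terminus of SMARCA4 (Promega CS3023225) were grown in DMEM supplemented with FBS and penicillin-streptomycin. After compound exposure, remaining SMARCA4 protein was quantified using the Nano-Glo® HiBiT Lytic Detection Assay (Promega N3050), and curves were fitted in GraphPad Prism.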

The mark [1] stands for this setting: Hela SMARCA2-HiBiT cells, 24 hours treatment; read-out: SMARC A2 Hela HiBit DC50.
The mark [2] stands for this setting: Hela SMARCA2-HiBiT cells, 24 hours treatment; read-out: SMARC A2 Hela HiBit Dmax (%).
Setting [3] is: Hela SMARCA4-HiBiT cells, 24 hours treatment.
Setting [4] is: Hela SMARCA4-HiBiT cells, 24 hours treatment, read-out: SMARC A4 Hela HiBit Dmax.
Setting [5] is: HeLa, read-out: SMARC A2 Hela HiBit Dmax (%).

Read-outs that look alike come from different tables or passages of the source.

The record followed here is patent US20260092071A1, “COMPOUNDS AND COMPOSITIONS AS SMARCA2/4 DEGRADERS AND USES THEREOF” (REGENTS OF THE UNIVERSITY OF MICHIGAN, priority 2022, published 2026).

For orientation: DC50 means the concentration giving 50% degradation. The term Dmax denotes the largest share of the target that was removed.

SMARCA2, sequence (P51531 whole entry, the tested form may be a part): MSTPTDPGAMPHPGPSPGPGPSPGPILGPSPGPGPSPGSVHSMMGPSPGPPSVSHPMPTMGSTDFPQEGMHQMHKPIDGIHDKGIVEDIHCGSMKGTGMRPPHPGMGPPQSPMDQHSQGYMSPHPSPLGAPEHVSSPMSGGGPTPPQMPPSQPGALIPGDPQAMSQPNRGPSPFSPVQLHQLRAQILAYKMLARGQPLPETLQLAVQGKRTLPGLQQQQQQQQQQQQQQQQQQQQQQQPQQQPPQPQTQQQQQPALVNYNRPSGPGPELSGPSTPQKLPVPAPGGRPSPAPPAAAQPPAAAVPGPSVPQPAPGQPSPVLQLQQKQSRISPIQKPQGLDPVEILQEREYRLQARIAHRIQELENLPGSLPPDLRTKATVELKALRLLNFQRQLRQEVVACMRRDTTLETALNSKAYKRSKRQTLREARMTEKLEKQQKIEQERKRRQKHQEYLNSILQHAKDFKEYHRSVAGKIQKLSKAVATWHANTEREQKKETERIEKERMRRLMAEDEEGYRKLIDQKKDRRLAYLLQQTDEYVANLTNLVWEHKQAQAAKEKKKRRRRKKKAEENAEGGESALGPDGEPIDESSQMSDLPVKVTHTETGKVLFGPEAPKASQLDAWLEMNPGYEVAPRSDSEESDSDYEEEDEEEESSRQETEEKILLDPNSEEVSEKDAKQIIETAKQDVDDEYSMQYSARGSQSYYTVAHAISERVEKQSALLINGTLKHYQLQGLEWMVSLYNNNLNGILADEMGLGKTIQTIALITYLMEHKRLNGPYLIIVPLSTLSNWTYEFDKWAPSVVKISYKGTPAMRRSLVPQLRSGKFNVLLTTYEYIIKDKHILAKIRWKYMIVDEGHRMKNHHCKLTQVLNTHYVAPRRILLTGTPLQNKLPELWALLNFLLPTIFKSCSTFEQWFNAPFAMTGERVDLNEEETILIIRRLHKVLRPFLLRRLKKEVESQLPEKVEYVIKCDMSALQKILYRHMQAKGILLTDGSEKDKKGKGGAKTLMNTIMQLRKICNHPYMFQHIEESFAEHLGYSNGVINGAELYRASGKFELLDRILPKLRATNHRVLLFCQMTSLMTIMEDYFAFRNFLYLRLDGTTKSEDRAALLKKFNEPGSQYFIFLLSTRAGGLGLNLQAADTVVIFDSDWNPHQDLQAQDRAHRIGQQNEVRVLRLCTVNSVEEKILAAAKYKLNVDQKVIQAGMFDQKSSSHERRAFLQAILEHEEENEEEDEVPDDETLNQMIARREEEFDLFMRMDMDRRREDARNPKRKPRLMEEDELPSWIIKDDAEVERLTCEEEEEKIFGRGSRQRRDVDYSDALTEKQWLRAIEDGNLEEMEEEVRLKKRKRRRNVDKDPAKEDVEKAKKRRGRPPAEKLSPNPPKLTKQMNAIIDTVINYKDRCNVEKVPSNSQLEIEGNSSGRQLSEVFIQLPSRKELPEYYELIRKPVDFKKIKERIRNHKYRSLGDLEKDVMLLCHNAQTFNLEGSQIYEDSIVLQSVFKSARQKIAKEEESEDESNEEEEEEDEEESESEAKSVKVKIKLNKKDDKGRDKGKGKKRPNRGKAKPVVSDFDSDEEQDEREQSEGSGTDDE
SMARCA4, sequence (P51532 whole entry, the tested form may be a part): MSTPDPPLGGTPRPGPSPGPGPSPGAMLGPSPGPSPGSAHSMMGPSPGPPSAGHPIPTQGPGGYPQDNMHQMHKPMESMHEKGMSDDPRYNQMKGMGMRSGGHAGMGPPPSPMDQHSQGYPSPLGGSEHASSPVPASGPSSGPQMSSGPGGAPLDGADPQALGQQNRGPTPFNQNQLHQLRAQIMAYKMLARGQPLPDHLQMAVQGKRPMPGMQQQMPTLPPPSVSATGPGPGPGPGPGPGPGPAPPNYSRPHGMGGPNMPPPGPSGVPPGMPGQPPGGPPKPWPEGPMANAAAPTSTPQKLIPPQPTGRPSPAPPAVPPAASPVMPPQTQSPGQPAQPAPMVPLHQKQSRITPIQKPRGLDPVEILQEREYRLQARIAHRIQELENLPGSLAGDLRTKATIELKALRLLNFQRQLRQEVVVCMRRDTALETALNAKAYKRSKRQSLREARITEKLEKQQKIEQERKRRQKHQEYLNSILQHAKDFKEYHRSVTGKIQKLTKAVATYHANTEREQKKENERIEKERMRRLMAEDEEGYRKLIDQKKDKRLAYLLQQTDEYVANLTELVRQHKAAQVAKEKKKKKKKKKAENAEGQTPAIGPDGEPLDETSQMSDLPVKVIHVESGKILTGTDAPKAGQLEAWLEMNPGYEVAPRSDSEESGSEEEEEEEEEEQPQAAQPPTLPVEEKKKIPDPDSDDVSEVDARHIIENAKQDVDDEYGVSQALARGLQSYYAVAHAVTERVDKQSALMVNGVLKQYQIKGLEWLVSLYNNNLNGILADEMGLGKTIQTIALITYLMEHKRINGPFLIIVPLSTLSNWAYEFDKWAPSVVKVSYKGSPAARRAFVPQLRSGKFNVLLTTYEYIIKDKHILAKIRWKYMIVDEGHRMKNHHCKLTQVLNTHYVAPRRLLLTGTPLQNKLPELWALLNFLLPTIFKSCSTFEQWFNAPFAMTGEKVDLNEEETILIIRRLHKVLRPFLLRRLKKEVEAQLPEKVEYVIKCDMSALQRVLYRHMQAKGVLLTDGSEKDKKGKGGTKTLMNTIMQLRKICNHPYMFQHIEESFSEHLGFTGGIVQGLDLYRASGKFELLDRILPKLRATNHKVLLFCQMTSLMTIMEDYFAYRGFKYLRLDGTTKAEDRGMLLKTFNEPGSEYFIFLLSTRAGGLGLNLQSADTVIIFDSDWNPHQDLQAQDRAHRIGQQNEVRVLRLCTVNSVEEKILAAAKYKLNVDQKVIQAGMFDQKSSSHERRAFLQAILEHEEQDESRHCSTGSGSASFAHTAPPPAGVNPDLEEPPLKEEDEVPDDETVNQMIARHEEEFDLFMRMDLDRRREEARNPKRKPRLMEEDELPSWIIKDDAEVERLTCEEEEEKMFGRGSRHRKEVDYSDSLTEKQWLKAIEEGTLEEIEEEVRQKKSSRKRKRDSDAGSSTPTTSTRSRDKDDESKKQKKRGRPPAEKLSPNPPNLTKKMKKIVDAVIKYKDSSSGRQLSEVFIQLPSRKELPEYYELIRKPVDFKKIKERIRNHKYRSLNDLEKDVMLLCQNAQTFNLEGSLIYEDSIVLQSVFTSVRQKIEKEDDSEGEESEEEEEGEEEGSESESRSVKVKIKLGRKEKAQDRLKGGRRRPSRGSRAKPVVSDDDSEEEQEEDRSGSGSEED

As to `Cc1ncsc1-c1ccc([C@H](CN2CCOCC2)NC(=O)[C@@H]2C[C@@H](O)CN2C(=O)[C@@H](n2cc([C@H]3C[C@H](CN4CC5(CCC(c6ccc7c(c6)-n6c(nc(=O)c8c(Cl)cccc86)C76CCCCC6)CC5)C4)C3)nn2)C(C)(C)C)cc1` [Compound A88, (2S,4R)-1-((S)-2-(4-((1r,3S)-3-((7-(4′-chloro-5′-oxo-5′H-spiro[cyclohexane-1,7′-indolo[1,2-a]quinazolin]-10′-yl)-2-azaspiro[3.5]nonan-2-yl)methyl)cyclobutyl)-1H-1,2,3-triazol-1-yl)-3,3-dimethylbutanoyl)-4-hydroxy-N—((R)-1-(4-(4-methylthiazol-5-yl)phenyl)-2-morpholinoethyl)pyrrolidine-2-carboxamide], the 50% degradation concentration (DC50) on SMARCA2 (setting [1]) and on SMARCA4 (setting [3]) was 10 to 100 nM in each case. In addition, the results for the greatest degradation seen (Dmax) at SMARCA2 (setting [2]) and on SMARCA4 (setting [4]) were greater than 90% and 70 to 90%, respectively.
Consider `Cc1ncsc1-c1ccc([C@H](CN2CCOCC2)NC(=O)[C@@H]2C[C@@H](O)CN2C(=O)[C@H](C2CCCCC2)n2cc([C@H]3CC[C@H](CN4CCC(c5ccc6c(c5)-n5c(nc(=O)c7c(Cl)cccc75)C65CCCCC5)C4)CC3)nn2)cc1` (stereo partly drawn) [Compound A130, (2S,4R)-1-((2S)-2-(4-((1r,4S)-4-((3-(4′-chloro-5′-oxo-5′H-spiro[cyclohexane-1,7′-indolo[1,2-a]quinazolin]-10′-yl)pyrrolidin-1-yl)methyl)cyclohexyl)-1H-1,2,3-triazol-1-yl)-2-cyclohexylacetyl)-4-hydroxy-N—((R)-1-(4-(4-methylthiazol-5-yl)phenyl)-2-morpholinoethyl)pyrrolidine-2-carboxamide], for which the half-maximal degradation concentration (DC50) at SMARCA2 (setting [1]) was 10 to 100 nM; on SMARCA4 (setting [3]), greater than 1000 nM. Further, the greatest degradation seen (Dmax) was greater than 90% on SMARCA2 (setting [2]) and less than 50% on SMARCA4 (setting [4]).
As for `Cc1ncsc1-c1ccc([C@H](C)NC(=O)[C@@H]2C[C@@H](O)CN2C(=O)[C@@H](NC(=O)[C@H]2CC[C@H](CN3CCC(c4ccc5c(n4)-n4c(nc(=O)c6c(Br)cccc64)C54CCCCC4)CC3)CC2)C(C)(C)C)cc1` [Compound A51, (2S,4R)-1-((S)-2-((1r,4S)-4-((4-(4′-bromo-5′-oxo-5′H-spiro[cyclohexane-1,7′-pyrido[3′,2′: 4,5]pyrrolo[1,2-a]quinazolin]-10′-yl)piperidin-1-yl)methyl)cyclohexane-1-carboxamido)-3,3-dimethylbutanoyl)-4-hydroxy-N—((S)-1-(4-(4-methylthiazol-5-yl)phenyl)ethyl)pyrrolidine-2-carboxamide], the Dmax at SMARCA2 (setting [5]) is 50 to 69%; at SMARCA4 (HeLa, read-out: SMARC A4 Hela HiBit Dmax(%)), less than 50%. Further, at SMARCA2 (read-out: SMARC A2 Hela HiBit DC50; Hela SMARCA2-HiBiT cells, 24 hours treatment), the DC50 fell in the range of 501 to 1000 nM. Moreover, at SMARCA4 (setting [3]), the “SMARC A4 Hela HiBit DC50(nM)” value is “No Fit”.
As for `COC(=O)C[C@H](NC(=O)[C@@H]1C[C@@H](O)CN1C(=O)[C@@H](n1cc([C@H]2CC[C@H](CN3CCC(c4ccc5c(c4)-n4c(nc(=O)c6c(Cl)cccc64)C54CCCCC4)CC3)CC2)nn1)C(C)(C)C)c1ccc(-c2scnc2C)cc1` [Compound A145, methyl(S)-3-((2S,4R)-1-((S)-2-(4-((1r,4S)-4-((4-(4′-chloro-5′-oxo-5′H-spiro[cyclohexane-1,7′-indolo[1,2-a]quinazolin]-10′-yl)piperidin-1-yl)methyl)cyclohexyl)-1H-1,2,3-triazol-1-yl)-3,3-dimethylbutanoyl)-4-hydroxypyrrolidine-2-carboxamido)-3-(4-(4-methylthiazol-5-yl)phenyl) propanoate], the DC50 on SMARCA2 (setting [1]) was less than 10 nM; at SMARCA4 (setting [3]), greater than 1000 nM. Also, the greatest degradation seen (Dmax) on SMARCA2 (setting [2]) is greater than 90%; at SMARCA4 (setting [4]) it was 50 to 69%.
For `COCCOCCOCCOC[C@H](NC(=O)[C@@H]1C[C@@H](O)CN1C(=O)[C@@H](n1cc([C@H]2CC[C@H](CN3CCC(c4ccc5c(c4)-n4c(nc(=O)c6c(Cl)cccc64)C54CCCCC4)CC3)CC2)nn1)C(C)(C)C)c1ccc(-c2scnc2C)cc1` [Compound A148, (2S,4R)-1-((S)-2-(4-((1r,4S)-4-((4-(4′-chloro-5′-oxo-5′H-spiro[cyclohexane-1,7′-indolo[1,2-a]quinazolin]-10′-yl)piperidin-1-yl)methyl)cyclohexyl)-1H-1,2,3-triazol-1-yl)-3,3-dimethylbutanoyl)-4-hydroxy-N—((R)-13-(4-(4-methylthiazol-5-yl)phenyl)-2,5,8,11-tetraoxatridecan-13-yl)pyrrolidine-2-carboxamide], the DC50 at SMARCA2 (setting [1]) was less than 10 nM; on SMARCA4 (setting [3]) it was greater than 1000 nM. Also, the figures for the Dmax at SMARCA2 (setting [2]) and at SMARCA4 (setting [4]) were greater than 90% and 50 to 69%, respectively.
`O=C(O)c1ncsc1-c1ccc([C@H](CN2CCOCC2)NC(=O)[C@@H]2C[C@@H](O)CN2C(=O)[C@H](C2CCOCC2)n2cc([C@H]3CC[C@H](CN4CCC(c5ccc6c(c5)-n5c(nc(=O)c7c(Cl)cccc75)C65CCCCC5)CC4)CC3)nn2)cc1` [Compound A134, 5-(4-((R)-1-((2S,4R)-1-((S)-2-(4-((1r,4S)-4-((4-(4′-chloro-5′-oxo-5′H-spiro[cyclohexane-1,7′-indolo[1,2-a]quinazolin]-10′-yl)piperidin-1-yl)methyl)cyclohexyl)-1H-1,2,3-triazol-1-yl)-2-(tetrahydro-2H-pyran-4-yl)acetyl)-4-hydroxypyrrolidine-2-carboxamido)-2-morpholinoethyl)phenyl)thiazole-4-carboxylic acid]: the DC50 on SMARCA2 (setting [1]) was 100 to 1000 nM; on SMARCA4 (setting [3]) it was greater than 1000 nM. Further, the results for the Dmax at SMARCA2 (setting [2]) and at SMARCA4 (setting [4]) were 70 to 90% and less than 50%, respectively.
As to `Cc1ncsc1-c1ccc([C@H](C)NC(=O)[C@@H]2C[C@@H](O)CN2C(=O)[C@@H](NC(=O)C23CCC(CN4CCC(c5ccc6c(c5)C5(CCCCC5)c5nc(=O)c7c(Br)cccc7n5-6)CC4)(CC2)CC3)C(C)(C)C)cc1` [Compound A27, (2S,4R)-1-((S)-2-(4-((4-(4′-bromo-5′-oxo-5′H-spiro[cyclohexane-1,7′-indolo[1,2-a]quinazolin]-9′-yl)piperidin-1-yl)methyl)bicyclo[2.2.2]octane-1-carboxamido)-3,3-dimethylbutanoyl)-4-hydroxy-N—((S)-1-(4-(4-methylthiazol-5-yl)phenyl)ethyl)pyrrolidine-2-carboxamide], the maximal degradation (Dmax) was in the range of 70 to 90% on SMARCA2 (setting [5]) and 50 to 69% on SMARCA4 (Hela SMARCA4-HiBiT cells, 24 hours treatment, read-out: SMARC A4 Hela HiBit Dmax(%)). Further, the DC50 on SMARCA2 (read-out: SMARC A2 Hela HiBit DC50) is less than 100 nM; at SMARCA4, 501 to 1000 nM.
For the compound `Cc1ncsc1-c1ccc([C@H](CN2CCC(C(F)(F)F)CC2)NC(=O)[C@@H]2C[C@@H](O)CN2C(=O)[C@@H](n2cc([C@H]3CC[C@H](CN4CCC(c5ccc6c(c5)-n5c(nc(=O)c7c(Cl)cccc75)C65CCCCC5)CC4)CC3)nn2)C(C)(C)C)cc1` [Compound A83, (2S,4R)-1-((S)-2-(4-((1r,4S)-4-((4-(4′-chloro-5′-oxo-5′H-spiro[cyclohexane-1,7′-indolo[1,2-a]quinazolin]-10′-yl)piperidin-1-yl)methyl)cyclohexyl)-1H-1,2,3-triazol-1-yl)-3,3-dimethylbutanoyl)-4-hydroxy-N-(®-1-(4-(4-methylthiazol-5-yl)phenyl)-2-(4-(trifluoromethyl)piperidin-1-yl)ethyl)pyrrolidine-2-carboxamide], the DC50 is less than 10 nM on SMARCA2 (setting [1]) and greater than 1000 nM at SMARCA4 (setting [3]). The Dmax is greater than 90% on SMARCA2 (setting [2]) and 50 to 69% at SMARCA4 (setting [4]).
As for `CC(C)(C)[C@@H](C(=O)N1C[C@H](O)C[C@H]1C(=O)N[C@@H](CN1CCOCC1)c1ccc(-c2ccccc2)cc1)n1cc([C@H]2CC[C@H](CN3CCC(c4ccc5c(c4)-n4c(nc(=O)c6c(Cl)cccc64)C54CCCCC4)CC3)CC2)nn1` [Compound A162, (2S,4R)—N—((R)-1-([1,1′-biphenyl]-4-yl)-2-morpholinoethyl)-1-((S)-2-(4-((1r,4S)-4-((4-(4′-chloro-5′-oxo-5′H-spiro[cyclohexane-1,7′-indolo[1,2-a]quinazolin]-10′-yl)piperidin-1-yl)methyl)cyclohexyl)-1H-1,2,3-triazol-1-yl)-3,3-dimethylbutanoyl)-4-hydroxypyrrolidine-2-carboxamide], the DC50 on SMARCA2 (setting [1]) is less than 10 nM; on SMARCA4 (setting [3]) it was 100 to 1000 nM. Further, the Dmax was greater than 90% on SMARCA2 (setting [2]) and 50 to 69% on SMARCA4 (setting [4]).
